Measurements published in Sander's compilation of Henry's law constants (doi:10.1021/je3010535).

Assay: Henry solubility constant Hcp at 298.15 K (mol/(m3 Pa))
Details: reference: Hiatt (2013)

SMILES	Henry solubility constant Hcp
ClCC(Cl)(Cl)Cl [1,1,1,2-tetrachloroethane]	0.0048
CC(Cl)(Cl)Cl [1,1,1-trichloroethane]	0.00069
ClC(Cl)C(Cl)Cl [1,1,2,2-tetrachloroethane]	0.033
[2H]C([2H])(Cl)C([2H])(Cl)Cl [1,1,2-trichloroethane-d3]	0.013
ClCC(Cl)Cl [1,1,2-trichloroethane]	0.014
C=C(Cl)Cl [1,1-dichloroethene]	0.00041
CC=C(Cl)Cl [1,1-dichloropropene]	0.00061
[2H]c1c([2H])c(Cl)c(Cl)c(Cl)c1[2H] [1,2,3-trichlorobenzene-d3]	0.015
Clc1cccc(Cl)c1Cl [1,2,3-trichlorobenzene]	0.015
ClCC(Cl)CCl [1,2,3-trichloropropane]	0.042
Cc1ccc(C)c(C)c1 [1,2,4-trimethylbenzene]	0.0032
ClCC(Br)CBr (centres undefined) [1,2-dibromo-3-chloropropane]	0.097
[2H]C([2H])([2H])C([2H])(Cl)C([2H])([2H])Cl (centres undefined) [1,2-dichloropropane-d6]	0.0036
CC(Cl)CCl (centres undefined) [1,2-dichloropropane]	0.0043
[2H]c1c([2H])c([2H])c(C([2H])([2H])[2H])c(C([2H])([2H])[2H])c1[2H] [1,2-dimethylbenzene-d10]	0.003
Cc1ccccc1C [1,2-dimethylbenzene]	0.0032
Cc1cc(C)cc(C)c1 [1,3,5-trimethylbenzene]	0.0023
Clc1cccc(Cl)c1 [1,3-dichlorobenzene]	0.0052
ClCCCCl [1,3-dichloropropane]	0.013
Clc1ccc(Cl)cc1 [1,4-dichlorobenzene]	0.0058
Fc1ccc(Br)cc1 [1-bromo-4-fluorobenzene]	0.0053
Cc1ccc(Cl)cc1 [1-chloro-4-methylbenzene]	0.0041
Cc1ccc(C(C)C)cc1 [1-methyl-4-(1-methylethyl)-benzene]	0.0018
[2H]c1c([2H])c([2H])c2c(C([2H])([2H])[2H])c([2H])c([2H])c([2H])c2c1[2H] [1-methylnaphthalene-d10]	0.046
Cc1cccc2ccccc12 [1-methylnaphthalene]	0.044

SMILES	Henry solubility constant Hcp
[2H]c1c([2H])c([2H])c(C(C)=O)c([2H])c1[2H] [1-phenylethanone-d5]	2.3
CC(=O)c1ccccc1 [1-phenylethanone]	0.97
CC(C)(Cl)Cl [2,2-dichloropropane]	0.00044
[2H]C([2H])(O)C([2H])([2H])Cl [2-chloroethanol-d4]	5
[2H]C([2H])([2H])C(=O)C([2H])([2H])CCC [2-hexanone-1,1,1,3,3-d5]	0.17
CCCCC(C)=O [2-hexanone]	0.15
COCCO [2-methoxyethanol]	4.4
CCCCC(C)CO (centres undefined) [2-methyl-1-hexanol]	0.69
Cc1ccc2ccccc2c1 [2-methylnaphthalene]	0.035
CC(C)O [2-propanol]	1.1
C=CC#N [2-propenenitrile]	0.12
Cc1cc(C(C)(C)C)cc(C(C)(C)C)c1 [3,5-di-tert-butyltoluene]	0.0037
Cc1cc(Br)cc(Br)c1 [3,5-dibromotoluene]	0.017
C=CCCl [3-chloro-1-propene]	0.0013
CC(=O)CC(C)C [4-methyl-2-pentanone]	0.1
CC(C)(C)c1ccccc1 [(1,1-dimethylethyl)-benzene]	0.0016
CCC(C)c1ccccc1 (centres undefined) [(1-methylpropyl)-benzene]	0.0013
CC(C)c1ccccc1 [(2-propyl)-benzene]	0.0014
ClC/C=C/CCl [(E)-1,4-dichloro-2-butene]	0.035
ClC/C=C\CCl [(Z)-1,4-dichloro-2-butene]	0.03
ClCc1ccccc1 [(chloromethyl)-benzene]	0.02
[2H]c1c([2H])c([2H])c([2H])c([2H])c1[2H] [benzene-d6]	0.0018
c1ccccc1 [benzene]	0.0018
[2H]c1c([2H])c([2H])c(Br)c([2H])c1[2H] [bromobenzene-d5]	0.0065
Brc1ccccc1 [bromobenzene]	0.006

SMILES	Henry solubility constant Hcp
ClCBr [bromochloromethane]	0.0066
ClC(Cl)Br [bromodichloromethane]	0.0052
CBr [bromomethane]	0.0013
CCCCc1ccccc1 [butylbenzene]	0.002
S=C=S [carbon disulfide]	0.00057
[2H]c1c([2H])c([2H])c(Cl)c([2H])c1[2H] [chlorobenzene-d5]	0.0036
Clc1ccccc1 [chlorobenzene]	0.0037
CCCl [chloroethane]	0.00085
[2H]C([2H])=C([2H])Cl [chloroethene-d3]	0.00038
C=CCl [chloroethene]	0.00039
Cl/C=C\CCl [cis-1,3-dichloropropene]	0.0095
C1CCCCC1 [cyclohexane]	0.00032
Fc1c(F)c(F)c(-c2c(F)c(F)c(F)c(F)c2F)c(F)c1F [decafluorobiphenyl]	0.0067
ClC(Br)Br [dibromochloromethane]	0.011
BrCBr [dibromomethane]	0.012
FC(F)(Cl)Cl [dichlorodifluoromethane]	0.00013
[2H]C([2H])(Cl)Cl [dichloromethane-d2]	0.0038
ClCCl [dichloromethane]	0.004
[2H]C([2H])([2H])C([2H])([2H])OC([2H])([2H])C([2H])([2H])[2H] [diethyl ether-d10]	0.013
CCOCC [diethyl ether]	0.011
CC#N [ethanenitrile]	0.6
C=Cc1ccccc1 [ethenylbenzene]	0.0044
CCO[13C](C)=O [ethyl ethanoate-1-13C]	0.071
[2H]c1c([2H])c([2H])c(C([2H])([2H])C([2H])([2H])[2H])c([2H])c1[2H] [ethylbenzene-d10]	0.002
CCc1ccccc1 [ethylbenzene]	0.002

SMILES	Henry solubility constant Hcp
Fc1ccccc1 [fluorobenzene]	0.0016
ClC(Cl)=C(Cl)C(Cl)=C(Cl)Cl [hexachlorobutadiene]	0.0023
Fc1c(F)c(F)c(F)c(F)c1F [hexafluorobenzene]	0.00055
CI [iodomethane]	0.0018
COC(C)=O [methyl ethanoate]	0.12
C=C(C)C(=O)OC [methyl methacrylate]	0.043
[2H]c1c([2H])c([2H])c(C([2H])([2H])[2H])c([2H])c1[2H] [methylbenzene-d8]	0.002
Cc1ccccc1 [methylbenzene]	0.0021
[2H]C([2H])([2H])C1([2H])C([2H])([2H])C([2H])([2H])C([2H])([2H])C([2H])([2H])C1([2H])[2H] [methylcyclohexane-d14]	0.00031
CC1CCCCC1 [methylcyclohexane]	0.00032
[2H]c1c([2H])c([2H])c2c([2H])c([2H])c([2H])c([2H])c2c1[2H] [naphthalene-d8]	0.035
c1ccc2ccccc2c1 [naphthalene]	0.033
[2H]c1c([2H])c([2H])c([N+](=O)[O-])c([2H])c1[2H] [nitrobenzene-d5]	0.85
O=[N+]([O-])c1ccccc1 [nitrobenzene]	0.64
ClC(Cl)C(Cl)(Cl)Cl [pentachloroethane]	0.0059
Fc1cc(F)c(F)c(F)c1F [pentafluorobenzene]	0.00075
C[13C](C)=O [propanone-2-13C]	0.31
CCCc1ccccc1 [propylbenzene]	0.0019
ClC(Cl)=C(Cl)Cl [tetrachloroethene]	0.00099
ClC(Cl)(Cl)Cl [tetrachloromethane]	0.0005
Cl/C=C/CCl [trans-1,3-dichloropropene]	0.0058
BrC(Br)Br [tribromomethane]	0.022
ClC=C(Cl)Cl [trichloroethene]	0.0012
ClCc1ccccc1CCl [α,α-dichloro-o-xylene]	0.1
